This is an account of results in patent US8058475B2, “Substituted cyclohexylmethyl compounds” (Gruenenthal GmbH, priority 2005, dated 2011).

pKi: −log10 of the molar value. Like-named read-outs stand apart in the source and are kept apart here.

For this experiment, the target named is human μ-opiate receptor (Homo sapiens, UniProt P35372). Put plainly: Affinity for the human μ-opiate receptor ([3H]-naloxone displacement, SPA, CHO-K1 membrane preparation). Type of experiment: binding. To be noted: for inhibition at 1 µM: read-out: μ-Opioid receptor, % inhibition [1 μM]; for pKi: read-out: μ-Opioid receptor, Ki.
The mark [1] stands for this setting: 1 μM test substance, inhibition of specific [3H]-naloxone binding.

Usually inhibition stands for the percentage by which the read-out fell short of the control. As a reminder, the pKi is −log10 of the Ki, conventionally taken in molar units.

Sequence of human μ-opiate receptor (P35372 whole entry): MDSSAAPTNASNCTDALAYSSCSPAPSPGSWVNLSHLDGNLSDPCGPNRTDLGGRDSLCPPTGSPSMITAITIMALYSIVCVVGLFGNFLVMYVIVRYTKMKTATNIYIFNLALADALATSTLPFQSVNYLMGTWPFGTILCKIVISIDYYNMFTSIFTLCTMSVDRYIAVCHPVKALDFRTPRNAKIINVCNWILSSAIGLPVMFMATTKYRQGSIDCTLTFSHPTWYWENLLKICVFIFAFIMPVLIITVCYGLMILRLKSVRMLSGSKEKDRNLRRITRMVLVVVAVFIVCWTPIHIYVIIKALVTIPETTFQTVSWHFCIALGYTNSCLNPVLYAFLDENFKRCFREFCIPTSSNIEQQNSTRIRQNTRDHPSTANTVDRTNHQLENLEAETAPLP

`CC(Oc1ccccc1)C(=O)NC1CCC(C(c2cccc(F)c2)N(C)C)CC1` (single isomer, unassigned) [compound 215, N-{4-[dimethylamino-(3-fluoro-phenyl)-methyl]-cyclohexyl}-2-phenoxy-propionamide]: the inhibition at 1 µM is 90% and the pKi is 7.47.
For the compound `CN(C)C(c1ccccc1)C1CCC(NC(=O)c2csc(-c3ccc4c(c3)CCO4)n2)CC1` (stereo not drawn) [compound 289, 2-(2,3-dihydro-benzofuran-5-yl)-thiazole-4-carboxylic acid [4-(dimethylamino-phenyl-methyl)-cyclohexyl]-amide], the inhibition at 1 µM was 70% and the pKi was 7.11.
The like results for `CN(C)C(CCc1ccccc1)C1CCC(NC(=O)c2cccc(Cl)c2)CC1` (stereo not drawn) [compound 241, 3-chloro-N-[4-(1-dimethylamino-3-phenyl-propyl)-cyclohexyl]-benzamide] were, in that order, 82% and 7.17.
Regarding `CCn1nc(C)c(Br)c1C(=O)NCC1CCC(C(c2cccs2)N(C)C)CC1` (stereo not drawn) [compound 375, 4-bromo-2-ethyl-5-methyl-2H-pyrazole-3-carboxylic acid [4-(dimethylamino-thiophen-2-yl-methyl)-cyclohexylmethyl]-amide], the inhibition at 1 µM worked out at 84%.
Regarding `CN(C)C(c1ccccc1)C1CCC(NC(=O)Cc2cccs2)CC1` (stereo not drawn) [compound 255, N-[4-(dimethylamino-phenyl-methyl)-cyclohexyl]-2-thiophen-2-yl-acetamide], the inhibition at 1 µM was found to be 80% and the negative logarithm of the Ki (pKi) is 7.34.
Regarding `CN(C)C(c1ccc(Cl)cc1)C1CCC(O)(c2ccccc2)CC1` (stereo not drawn) [compound 158, 4-[(4-chloro-phenyl)-dimethylamino-methyl]-1-phenyl-cyclohexanol], the inhibition at 1 µM under setting [1] was 58%.
In the case of `CN(C)C(c1ccccc1)C1CCC(NC(=O)c2ccc(C(C)(C)C)cc2)CC1` (stereo not drawn) [compound 217, 4-tert-butyl-N-[4-(dimethylamino-phenyl-methyl)-cyclohexyl]-benzamide], the inhibition at 1 µM is 90% and the pKi is 7.21.
For `CSc1ncccc1C(=O)NCCC1CCC(C(c2ccccc2)N(C)C)CC1` (stereo not drawn) [compound 466, N-{2-[4-(dimethylamino-phenyl-methyl)-cyclohexyl]-ethyl}-2-methylsulfanyl-nicotinamide], the inhibition at 1 µM turned out to be 86% and the pKi was 7.39.
The like results for `CN(C)C(c1ccccc1)C1CCC(CNC(=O)c2cccnc2Oc2ccc(Cl)cc2)CC1` (single isomer, unassigned) [compound 360, 2-(4-chloro-phenoxy)-N-[4-(dimethylamino-phenyl-methyl)-cyclohexylmethyl]-nicotinamide] were, in that order, 86% and 7.46.
The like results for `CN(C)C(c1cccc(F)c1)C1CCC(CCNC(=O)c2cc(F)cc(F)c2)CC1` (stereo not drawn) [compound 435, N-(2-{4-[dimethylamino-(3-fluoro-phenyl)-methyl]-cyclohexyl}-ethyl)-3,5-difluoro-benzamide] were, in that order, 99% and 7.85.
The like results for `CN(C)C(c1ccccc1)C1CCC(CNC(=O)Cc2ccccc2)CC1` (stereo not drawn) [compound 306, N-[4-(dimethylamino-phenyl-methyl)-cyclohexylmethyl]-2-phenyl-acetamide] were, in that order, 98% and 8.00.
Consider `CN(C)C(c1ccccc1)C1CCC(CCNC(=O)c2c(F)cccc2F)CC1` (stereo not drawn) [compound 461, N-{2-[4-(dimethylamino-phenyl-methyl)-cyclohexyl]-ethyl}-2,6-difluoro-benzamide], for which the inhibition at 1 µM turned out to be 100% and the pKi is 7.77.
The corresponding values for `CN(C)C(CCc1ccccc1)C1CCC(NC(=O)c2ccc(F)c(C(F)(F)F)c2)CC1` (single isomer, unassigned) [compound 210, N-[4-(1-dimethylamino-3-phenyl-propyl)-cyclohexyl]-4-fluoro-3-trifluoromethyl-benzamide] are 92% and 7.62.
The like results for `CN(C)C(c1ccc(Cl)cc1)C1CCC(CCNC(=O)c2cc(F)cc(F)c2)CC1` (stereo not drawn) [compound 434, N-(2-{4-[(4-chloro-phenyl)-dimethylamino-methyl]-cyclohexyl}-ethyl)-3,5-difluoro-benzamide] were, in that order, 85% and 7.62.
The like results for `COc1cccc(OC)c1C(=O)NCC1CCC(C(c2cccs2)N(C)C)CC1` (stereo not drawn) [compound 300, N-[4-(dimethylamino-thiophen-2-yl-methyl)-cyclohexylmethyl]-2,6-dimethoxy-benzamide] were, in that order, 99% and 8.85.
Regarding `CN(C)C(c1ccccc1)C1CCC(CNC(=O)c2cccnc2Sc2ccc(Cl)cc2)CC1` (stereo not drawn) [compound 374, 2-(4-chloro-phenylsulfanyl)-N-[4-(dimethylamino-phenyl-methyl)-cyclohexyl-methyl]-nicotinamide], the inhibition at 1 µM turned out to be 84%.
`CN(C)C(c1cccs1)C1CCC(CNC(=O)c2ccccc2Br)CC1` (stereo not drawn) [compound 296, 2-bromo-N-[4-(dimethylamino-thiophen-2-yl-methyl)-cyclohexylmethyl]-benzamide]: the inhibition at 1 µM was found to be 100% and the pKi is 9.52.
As for `CN(C)C(c1ccccc1)C1CCC(CNC(=O)c2cccc(C(F)(F)F)c2)CC1` (single isomer, unassigned) [compound 333, N-[4-(dimethylamino-phenyl-methyl)-cyclohexylmethyl]-3-trifluoromethyl-benzamide], the “μ-Opioid receptor, % inhibition [1 μM]” value was found to be 92% and the pKi is 7.77.
Regarding `CN(C)C(c1ccccc1)C1CCC(CCNC(=O)c2cccc(Cl)c2)CC1` (single isomer, unassigned) [compound 398, 3-chloro-N-{2-[4-(dimethylamino-phenyl-methyl)-cyclohexyl]-ethyl}-benzamide], the “μ-Opioid receptor, % inhibition [1 μM]” value came out at 101% and the negative-log Ki (pKi) is 8.13.
As for `COc1cccc(CC(=O)NCC2CCC(C(c3ccc(Cl)cc3)N(C)C)CC2)c1` (stereo not drawn) [compound 320, N-{4-[(4-chloro-phenyl)-dimethylamino-methyl]-cyclohexylmethyl}-2-(3-methoxy-phenyl)-acetamide], the inhibition at 1 µM was determined as 95% and the pKi was 7.55.
Turning to `CN(C)C(c1ccccc1)C1CCC(CCNC(=O)c2cccc(C#N)c2)CC1` (stereo not drawn) [compound 477, 3-cyano-N-{2-[4-(dimethylamino-phenyl-methyl)-cyclohexyl]-ethyl}-benzamide], the inhibition at 1 µM came to 96% and the pKi was 7.89.
For `CN(C)C(c1cccc(F)c1)C1CCC(NC(=O)CC(C)(C)C)CC1` (stereo not drawn) [compound 251, N-{4-[dimethylamino-(3-fluoro-phenyl)-methyl]-cyclohexyl}-3,3-dimethyl-butyramide], the inhibition at 1 µM came out at 81% and the pKi was 7.04.
Regarding `CN(C)C(c1ccc(Cl)cc1)C1CCC(CCNC(=O)c2ccccc2Cl)CC1` (stereo not drawn) [compound 403, 2-chloro-N-(2-{4-[(4-chloro-phenyl)-dimethylamino-methyl]-cyclohexyl}-ethyl)-benzamide], the inhibition at 1 µM was determined as 81% and the pKi was 7.13.
As for `COC(=O)C(Cc1c[nH]c2ccccc12)NC1CCC(C(c2ccccc2)N(C)C)CC1` (single isomer, unassigned) [compound 175, methyl 2-(4-((dimethylamino)(phenyl)methyl)cyclohexylamino)-3-(1H-indol-3-yl)propanoate], the pKi is 7.96. Under setting [1], the “μ-Opioid receptor, % inhibition [1 μM]” value is listed as 86%.
Turning to `Cc1cccc(C(=O)NCC2CCC(C(c3ccccc3)N(C)C)CC2)c1` (stereo not drawn) [compound 362, N-[4-(dimethylamino-phenyl-methyl)-cyclohexylmethyl]-3-methyl-benzamide], the inhibition at 1 µM was 85% and the negative-log Ki (pKi) is 7.22.
For `CN(C)C(c1cccc(F)c1)C1CCC(CNC(=O)C2(c3ccc(Cl)cc3)CCCC2)CC1` (stereo not drawn) [compound 327, 1-(4-chloro-phenyl)-cyclopentane-carboxylic acid {4-[dimethylamino-(3-fluoro-phenyl)-methyl]-cyclohexylmethyl}-amide], the inhibition at 1 µM was 94% and the negative logarithm of the Ki (pKi) was 7.20.
The corresponding values for `CN(C)C(c1cccs1)C1CCC(CNC(=O)c2csc3ccccc23)CC1` (stereo not drawn) [compound 302, benzo[b]thiophene-3-carboxylic acid [4-(dimethylamino-thiophen-2-yl-methyl)-cyclohexylmethyl]-amide] are 99% and 8.80.
On to `COC(=O)C(Cc1c[nH]c2ccccc12)NC1CCC(C(c2ccccc2)N(C)C)CC1` (single isomer, unassigned) [compound 174, methyl 2-(4-((dimethylamino)(phenyl)methyl)cyclohexylamino)-3-(1H-indol-3-yl)propanoate], for which the pKi is 8.31. Under setting [1], the inhibition at 1 µM came to 95%.
As to `COc1cc(C(=O)NC2CCC(C(c3cccs3)N(C)C)CC2)cc(OC)c1OC` (stereo not drawn) [compound 212, N-[4-(dimethylamino-thiophen-2-yl-methyl)-cyclohexyl]-3,4,5-trimethoxy-benzamide], the inhibition at 1 µM came to 91% and the pKi was 7.72.
Turning to `CN(C)C(c1ccc(Cl)cc1)C1CCC(CCNC(=O)c2cc(F)c(Cl)cc2Cl)CC1` (stereo not drawn) [compound 437, 2,4-dichloro-N-(2-{4-[(4-chloro-phenyl)-dimethylamino-methyl]-cyclohexyl}-ethyl)-5-fluoro-benzamide], the inhibition at 1 µM came out at 80% and the negative logarithm of the Ki (pKi) is 7.00.
Consider `COc1cccc(C2(O)CCC(C(c3ccc(Cl)cc3)N(C)C)CC2)c1` (stereo not drawn) [compound 164, 4-[(4-chloro-phenyl)-dimethylamino-methyl]-1-(3-methoxy-phenyl)-cyclohexanol], for which the inhibition at 1 µM under setting [1] amounted to 58%.
As for `CCC(C(=O)NCCC1CCC(C(c2cccs2)N(C)C)CC1)c1ccccc1` (stereo not drawn) [compound 456, N-{2-[4-(dimethylamino-thiophen-2-yl-methyl)-cyclohexyl]-ethyl}-2-phenyl-butyramide], the inhibition at 1 µM was determined as 96% and the negative logarithm of the Ki (pKi) is 7.64.
